Experimental data taken from patent US11022604B2, “Dock derived compound against laminin receptor (37 LR) and uses thereof” (Purdue Research Foundation, priority 2017, dated 2021).

Assays:
[1] = system: EA.hy926 endothelial cells; assay: Angiogenesis tube formation assay; assay type: cell-based
Procedure: Expression of PEDF-signaling associated genes from PC-3 cells treated with 50 μM C3, compared to DMSO control and normalized to GAPDH (n=3, mean±SEM). A Holm-Sidak multiple t test was used for statistical analysis (*p<0.05,**O<0.01, ***<0.001). […] Average tube count for 0.1% DMSO, 0.5% DMSO, and 1, 10 and 50 μM treatment with C3 (n=7, mean±SEM). 1 and 10 μM C3 were compared with respective 0.5% DMSO (unpaired two-tailed t test, ****<0.0001). 50 μM C3 was compared with respective 0.1% DMSO (unpaired two-tailed t test p<0.0001).
Wound Healing Assay. PC-3 cells were seeded in 6 well plates at 3×10^5 cells per well in complete media until the cells reached confluency. Three horizontal and three vertical scratches were made in the confluent monolayers using a standard 200 μL pipette tip and cellular debris were removed by washing with 1×DPBS three times. 1×RPMI-1640 supplemented with C3 or DMSO was added and cells were incubated for 48 hours as described previously. […] Images were uploaded and analyzed for scratch geometry using the tscratch program (96). First, global thresholding was performed, then individual images were manually inspected for single image threshold adjustment and scratch geometries were quantified. […] The samples were analyzed using the Dionex UltiMate 3000 RSLC Nano System coupled to the Q Exactive™ HF Hybrid Quadrupole-Orbitrap MS (Thermo Scientific). […]

THP-1 human monocytes = assay: Inflammatory gene expression (qPCR) in LPS-stimulated THP-1 macrophages; assay type: cell-based
Procedure: FIG. 17—Fold change in inflammatory gene expression when THP-1 monocytes are treated with Compounds of Interest. […] PL, PMA-differentiated and treated with LPS. P18, PEDF peptide. (*, p<0.05 relative to PL)
Cell Culture. THP-1 human monocytes were purchased from ATCC (Manassas, Va.) and cultured in DMEM/10% FBS/1% Anti-Anti (Gibco). The monocytes were differentiated into macrophages with 5 ng/ml […] (PMA) for 48 h and pretreated with drugs for 6 h. Lipopolysaccharide (LPS, 10 ng/ml) stimulation was performed for 1 h and cells were collected for assays. Human adipose-derived mesenchymal stromal/stem cells (ASC) were purchased from LaCell, LLC (Metairie, La.) and grown on fibronectin-coated plates in MCDB-201/DMEM/10% FBS media. RNA isolation and qPCR. RNA was isolated from cell pellets using an RNAeasy kit (Qiagen) according to manufacturers' specifications for tissue samples. 1 μg RNA was reverse transcribed using a AmfiRivert kit (Genedepot) and 2 μl used in a SYBR green quantitative PCR reaction for detecting differences in gene expression relative to beta-actin control. Luciferase Assays. THP-1 human monocytes were seeded in OptiMEM/1% anti-anti (Gibco) and transfected using Lipofectamine LTX (Invitrogen, Carlsbad, Calif.) in a 96-well format in white opaque plates. […] The samples were read in a BiotekNeo (Bindley Bioscience Center). […]

calcein uptake [1]: did not alter calcein uptake
SMILES: O=C(c1cc(F)cc2c1OCOC2)N1CCN(C2c3ccccc3-c3ccccc32)CC1 [Compound C3, [4-(9h-fluoren-9-yl)piperazino](6-fluoro-4h-1,3-benzodioxin-8-yl)methanone]
reduction of IL-1β expression (THP-1 human monocytes): ~8 fold
